Measurements: US5607926A, “Cephalosporin antibiotics” (Microcide Pharmaceuticals, Inc., priority 1995, dated 1997)
≈ marks a conversion by molar mass, not a printed value. Structures can show the parent of a compound that is named as a salt. Where two headings read alike, the source gives them in different places.

Columns and labels:
[1] = test system: methicillinsusceptible S. aureus strain ATCC 13709; experiment: Challenge strain MIC; type: cell-based; conditions: Staphylococcus aureus
Protocol: The compounds of the invention were evaluated against several β-lactamresistant bacteria strains by determining the minimum inhibitory concentration (MIC, μg/ml) of each compound with respect to each strain. The MIC, the lowest concentration of antibiotic which inhibits growth of the test organism, was determined by the agar dilution method.
To determine the MIC for bacterial isolates, the test compound was incorporated in a series of two-fold dilutions into liquified Mueller-Hinton agar. Upon solidification, a number of different bacterial strains were spot inoculated with a replicating device onto the agar surface. […] The procedures used in these studies have been standardized by the National Committee for Clinical Laboratory Standards (NCCLS), as per the NCCLS publication entitled METHODS FOR DILUTION ANTIMICROBIAL SUSCEPTIBILITY TESTS (1991), which is incorporated herein by reference.
Aliquots of antimicrobial agents were prepared in phosphate buffered saline (PBS) at pH 7.2. Tween 20 or DMSO was used as a solubilizing vehicle as needed. Standard methods of vortexing, sonicating and gentle heat were used to facilitate solubilizing the test agent. Typically, the concentration of the stock solution was 10× that of the highest drug concentration tested. A 1.28 mg/mL stock solution was used with a subsequent highest working concentration of 128 μg/mL. Serial two-fold dilutions were done through ≤0.25 μg/mL. Each drug level was tested in duplicate. Two-fold drug dilutions were done in sterile 50 mL tubes with a final drug volume of 5 mL. Upon the addition of 45 mL of molten agar, a 10-fold dilution resulted. Two, 25 mL. plates were then poured into 15×150 mm square Petri plates with grids and allowed to harden.
A control plate with a reference drug, either cefotaxime, vancomycin or imipenem, was used as the positive growth control. Stock concentrations of reference antibiotics were prepared and frozen at -80° C. Upon preparation, the control plates were sealed and stored in the refrigerator for up to 1 week prior to use; however, imipenem control plates had to be prepared just prior to use. All test plates were used within 24 hours of preparation.
Satisfactory results were obtained where the inoculum contained about 10^4 colony forming units (cfu) ±0.5 logs. Starting with pure cultures of the test isolates on agar plates, a few isolated colonies were transferred to a tube of nutrient broth and allowed to grow 4-6 hours at 35°-36° C. to reach log-phase growth. Dropwise addition of the broth culture to PBS was done to match a 0.5 McFarland turbidity standard equal to 10^8 cfu/mL. This was further diluted ten-fold in PBS to reach a working inoculum concentration of 10^7 cfu/mL. When 1 μL of the working inoculum was applied to the agar surface a concentration of about 10^4 cfu per spot was obtained.
Disposable sterile 1 μL loops were used to inoculate test plates, with each isolate in a designated grid on the agar plate. An alternate method of inoculation involved the use of a replica plater, a device with 48 steel pins allowing the simultaneous inoculation of multiple isolates. After the spots had dried, the plates were incubated at 35°-36° C. for 16-20 hours. Endpoints were assessed as the minimum inhibitory concentration (MIC) of antimicrobial agent.
(§1) data reported for challenge with methicillinsusceptible S. aureus strain

S. aureus ATCC 29213 = experiment: In vitro antibacterial evaluation, MIC by agar dilution, S. aureus ATCC 29213; type: cell-based; conditions: Staphylococcus aureus, ATCC29213
In short: (§2)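 Two-fold dilutions of test compound, 128 μg/mL down to ≤0.25 μg/mL, were set in Mueller-Hinton agar in duplicate and spot-inoculated with about 10^4 cfu of log-phase culture. Plates were incubated 16-20 hours at 35°-36° C, and MIC taken as the lowest concentration inhibiting growth, following NCCLS agar dilution.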

E. faecium ATCC 35667 = experiment: In vitro antibacterial evaluation, MIC by agar dilution, E. faecium ATCC 35667; type: cell-based; conditions: Enterococcus faecium, ATCC35667, read-out: MIC
In short: as §2

E. faecalis ATCC 29212 = experiment: In vitro antibacterial evaluation, MIC by agar dilution, E. faecalis ATCC 29212; type: cell-based; conditions: Enterococcus faecalis, ATCC29212; E. faecalis ATCC 29212; read-out: MIC
In short: as §2

E. coli ATCC 25922 = experiment: In vitro antibacterial evaluation, MIC by agar dilution, E. coli ATCC 25922; type: cell-based; conditions: Escherichia coli, ATCC25922, read-out: MIC
In short: as §2

P. aeruginosa ATCC 27853 = experiment: In vitro antibacterial evaluation, MIC by agar dilution, P. aeruginosa ATCC 27853; type: cell-based; conditions: Pseudomonas aeruginosa, ATCC27853, read-out: MIC
In short: as §2

S. haemolyticus (Meth^R) = experiment: In vitro antibacterial evaluation, MIC by agar dilution, S. haemolyticus; type: cell-based; conditions: Staphylococcus haemolyticus, read-out: MIC
In short: as §2

[2] = test system: S. aureus Col8A (Meth^S)(lac^-); experiment: In vitro antibacterial evaluation, MIC by agar dilution, S. aureus Col8A; type: cell-based; conditions: Staphylococcus aureus
In short: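 Agar dilution per NCCLS (1991): two-fold dilutions from 128 μg/mL down to ≤0.25 μg/mL in Mueller-Hinton agar, each level in duplicate. Spots of about 10^4 cfu of log-phase culture; 16-20 h at 35°-36° C. MIC in μg/ml is the lowest concentration inhibiting growth.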

[3] = test system: S. aureus 76 (Meth^R)(lac^+); experiment: In vitro antibacterial evaluation, MIC by agar dilution, S. aureus 76; type: cell-based; conditions: Staphylococcus aureus, read-out: MIC
In short: as §2

[4] = test system: methicillinsusceptible S. aureus strain ATCC 13709; experiment: In vivo antibacterial evaluation, murine model for lethal bacteremic peritonitis; parameters: species or system S. aureus in female Swiss-Webster mice; conditions: Staphylococcus aureus, ATCC13709, sc, 72 h, two equal SC doses at challenge and 2 hours later, mice, probit, read-out: ED50
Protocol: Groups of 5 female Swiss-Webster mice (Simonsen, Gilroy, Calif.) each are challenged by the intraperitoneal (IP) route with ten-fold increments of a bacterial inoculum. This permits calculation of the mean lethal dose (LD50) and the LD100. For preliminary evaluation of a new antibiotic, mice are challenged IP with an LD100 titer of bacteria. In two equal doses administered at the time of bacterial challenge and 2 hours later, groups of 10 mice each are treated subcutaneously with two-fold increments of the test drug and an antibiotic of known efficacy in mice and humans (i.e., positive control). Mice are observed for 72 h. Those alive at 72 h are considered long term survivors. The total drug dose in mg/kg that protects 50% of mice in a group from death is termed the mean protective dose (PD50). PD50 s are similarly determined for several pathogens. The quantitative endpoints for the new drug are then compared with those obtained with reference antibiotics.
Six ten-fold dilutions of inoculum suspended in 0.5 mL of sterilized 7% hog gastric mucin (Sigma) are injected IP in groups of 5 mice each. A control group of 5 mice receive mucin alone. Mice are observed for 72 h. Those alive at 72 h are considered long term survivors. The mean lethal dose (LD50) and 100% lethal dose (LD100) are determined by the probit test.
For antibiotic efficacy studies, mice are challenged IP with bacterial titers that will afford an LD100 for the test strain. In two equal doses administered at the time of bacterial challenge and 2 hours later, groups of 10 mice each are treated by the subcutaneous route (SC) with twofold increments of the test antibiotic; another group is treated similarly with a reference antibiotic of known efficacy in animals and man. Drug doses can range from 0.01 to 512 mg/kg. If the drug is poorly soluble, Tween 20 or propylene glycol will be employed to solubilize the drug. Animals are observed for 72 h. The 50% protective dose (PD50) is calculated in mg/kg by the probit method. The PD50 is the same as the 50% effective dose (ED50) and the 50% curative dose (CD50). Samples of blood from the hearts of all animals that die and from half the mice that survive are cultured on brain-heart infusion agar. Animals that received a protective dosage of the test drug will be alive at 72 h, although they may appear moderately ill to very ill during the observation period. […] Most of these mice will die within 6 to 48 h. Those alive at 72 h will be considered long term survivors.
as §1

[5] = ATCC13709, S. aureus ATCC 13709, read-out: Challenge str MIC
[6] = S. aureus ATCC 29213, read-out: MIC
[7] = ATCC13709, read-out: Challenge str MIC

Structure (SMILES) | MIC [1, 5] [µg/mL] | MIC (S. aureus ATCC 29213; [6]) [µg/mL] | MIC (E. faecium ATCC 35667) [µg/mL] | MIC (E. faecalis ATCC 29212) [µg/mL] | MIC (E. coli ATCC 25922) [µg/mL] | MIC (P. aeruginosa ATCC 27853) [µg/mL] | MIC (S. haemolyticus (Meth^R)) [µg/mL] | MIC [2] [µg/mL] | MIC [3] [µg/mL] | ED50 [4] [mg/kg] | MIC (S. aureus ATCC 29213) [µg/mL] | MIC [1, 7] [µg/mL]
N=C(N)SCc1ccc(CC(=O)N[C@@H]2C(=O)N3C(C(=O)O)=C(Sc4ccccc4CSC(=N)N)CS[C@H]23)cc1 [Cmpd 97, (7R)-7-[((4-isothiouroniummethylphenyl)acetyl)amino]-3-(2-isothiouroniummethylphenylthio)-3-cephem-4-carboxylate, trifluoroacetic acid salt] | 0.062 | 0.06 | 1 | 0.5 | > 32 | > 32 | 8 | 0.125 | 4 | 0.74 | – | –
N=C(N)SCc1ccccc1SC1=C(C(=O)O)N2C(=O)[C@@H](NC(=O)Cc3ccccc3CN)[C@H]2SC1 [Cmpd 101, (7R)-7-[((2-Aminomethylphenyl)acetyl)amino]-3-(2-isothiouroniummethylphenylthio)-3-cephem-4-carboxylate, trifluoroacetic acid salt] | 0.125 | – | 2 | 1 | > 32 | > 32 | 16 | 0.25 | 8 | 0.65 | 0.25 | –
N#Cc1ncccc1SC1=C(C(=O)O)N2C(=O)[C@@H](NC(=O)Cc3ccccc3)[C@H]2SC1 [Cmpd 102, (7R)-7-[(Phenylacetyl)amino]-3-(2-cyanopyridin-3-ylthio)-3-cephem-4-carboxylic acid] | – | – | 4 (≈ 8.84 µM) | 2 (≈ 4.42 µM) | 32 (≈ 70.7 µM) | > 32 | 32 (≈ 70.7 µM) | 0.125 (≈ 0.276 µM) | 16 (≈ 35.4 µM) | 1.75 | 0.125 (≈ 0.276 µM) | 0.125 (≈ 0.276 µM)
O=C(Cc1ccccc1)N[C@@H]1C(=O)N2C(C(=O)O)=C(Sc3cccnc3-n3cccn3)CS[C@H]12 [Cmpd 103, (7R)-7-[(Phenylacetyl)amino]-3-(2-(pyrazol-1-yl)pyridin-3-ylthio)-3-cephem-4-carboxylic acid] | 0.125 (≈ 0.253 µM) | – | 2 (≈ 4.05 µM) | 1 (≈ 2.03 µM) | > 32 | > 32 | 4 (≈ 8.1 µM) | 0.25 (≈ 0.507 µM) | 8 (≈ 16.2 µM) | 2.67 | 0.25 (≈ 0.507 µM) | –
CCC(CC)O/N=C(\C(=O)N[C@@H]1C(=O)N2C(C(=O)O)=C(Sc3ccnn3-c3ccccc3)CS[C@H]12)c1csc(N)n1 [Cmpd 104, (7R)-7-[(Z)-2-(aminothiazol-4-yl)-2-(3-pentyloxyimino)acetamido]-3-(1-N-phenylpyrazol-5-ylthio)-3-cephem-4-carboxylic acid] | 0.5 (≈ 0.815 µM) | 0.5 (≈ 0.815 µM) | 4 (≈ 6.52 µM) | 2 (≈ 3.26 µM) | 8 (≈ 13 µM) | 16 (≈ 26.1 µM) | 4 (≈ 6.52 µM) | 0.5 (≈ 0.815 µM) | 4 (≈ 6.52 µM) | > 10 | – | –
CSCC(=O)N[C@@H]1C(=O)N2C(C(=O)O)=C(Sc3ccnn3-c3ccccc3)CS[C@H]12 [Cmpd 106, (7R)-7-[(methylthioacetyl)amino]-3-(1-N-phenylpyrazol-5-ylthio)-3-cephem-4-carboxylic acid] | – | 0.25 (≈ 0.54 µM) | 4 (≈ 8.65 µM) | 4 (≈ 8.65 µM) | > 32 | > 32 | 32 (≈ 69.2 µM) | 0.125 (≈ 0.27 µM) | 8 (≈ 17.3 µM) | 0.72 | – | 0.125 (≈ 0.27 µM)
O=C(CC1CC1)N[C@@H]1C(=O)N2C(C(=O)O)=C(Sc3ccnn3-c3ccccc3)CS[C@H]12 [Cmpd 107, (7R)-7-[(cyclopropylacetyl)amino]-3-(1-N-phenylpyrazol-5-ylthio)-3-cephem-4-carboxylic acid] | 0.125 (≈ 0.274 µM) | – | 8 (≈ 17.5 µM) | 8 (≈ 17.5 µM) | > 32 | > 32 | 32 (≈ 70.1 µM) | 0.25 (≈ 0.548 µM) | 16 (≈ 35 µM) | 1.58 | 0.25 (≈ 0.548 µM) | –
Nc1nc(/C(=N/OCC2CC2)C(=O)N[C@@H]2C(=O)N3C(C(=O)O)=C(Sc4ccnn4-c4ccccc4)CS[C@H]23)cs1 [Cmpd 108, (7R)-7-[(Z)-2-(2-aminothiazol-4-yl)-2-(cyclopropylmethyloxyimino)acetamido]-3-(1-N-phenylpyrazol-5-ylthio)-3-cephem-4-carboxylic acid] | 0.5 (≈ 0.837 µM) | 0.5 (≈ 0.837 µM) | 16 (≈ 26.8 µM) | 16 (≈ 26.8 µM) | 4 (≈ 6.69 µM) | 16 (≈ 26.8 µM) | 16 (≈ 26.8 µM) | 0.5 (≈ 0.837 µM) | 8 (≈ 13.4 µM) | > 10 | – | –
N=C(N)NCCSCC(=O)N[C@@H]1C(=O)N2C(C(=O)O)=C(Sc3ccccc3CSC(=N)N)CS[C@H]12 [Cmpd 137, (7R)-7-[((2-guanidinoethylthio)acetyl)amino]-3-(2-isothiouroniummethylphenylthio)-3-cephem-4-carboxylate, trifluoroacetic acid salt] | 0.06 | – | 0.25 | 0.5 | 4 | > 32 | 16 | 0.06 | 4 | 0.75 | – | –
